Values quoted from earlier work as cited in US20130287890A1, “INHIBITOR OF THE PRODUCTION OF ADVANCED GLYCATION END PRODUCTS” (UENO FINE CHEMICALS INDUSTRY, LTD., priority 2012, published 2013).

Settings: background art; cited from earlier work

In the case of N=C(N)NN [Aminoguanidine, aminoguanidine], the adverse drug reactions is listed as “hepatic impairment”.
